The IC50 is the concentration that inhibits the measured activity by half. Lower therefore signals greater potency in that assay.

Each structure is given as a SMILES string.

The target of test [1] is T1, Cytochrome P450 11B2, mitochondrial (Homo sapiens, UniProt P19099).
T1 sequence (P19099 whole entry): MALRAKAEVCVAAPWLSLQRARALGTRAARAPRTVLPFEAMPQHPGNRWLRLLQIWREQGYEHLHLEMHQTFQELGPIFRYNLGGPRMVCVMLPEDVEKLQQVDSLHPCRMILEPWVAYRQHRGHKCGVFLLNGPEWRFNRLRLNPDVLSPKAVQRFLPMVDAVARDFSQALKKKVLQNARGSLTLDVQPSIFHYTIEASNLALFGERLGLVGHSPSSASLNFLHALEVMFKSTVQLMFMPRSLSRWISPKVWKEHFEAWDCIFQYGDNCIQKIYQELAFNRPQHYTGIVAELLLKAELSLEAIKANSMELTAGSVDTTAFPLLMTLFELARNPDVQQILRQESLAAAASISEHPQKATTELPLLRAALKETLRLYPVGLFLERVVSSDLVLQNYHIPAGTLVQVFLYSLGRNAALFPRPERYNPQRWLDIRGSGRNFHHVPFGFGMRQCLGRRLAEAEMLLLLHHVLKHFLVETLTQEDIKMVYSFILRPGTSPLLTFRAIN
As to the kind of experiment: Inhibition of human CYP11B2 expressed in hamster V79MZ cells using [1,2-3H]11-deoxycorticosterone as substrate preincubated for 60 mins prior to substrate addition measured after 50 mins by HPLC analysis. It is filed as cell-based.

Test [2] concerns the target T2, Cytochrome P450 11B1, mitochondrial (Homo sapiens, UniProt P15538).
T2 sequence (P15538 whole entry): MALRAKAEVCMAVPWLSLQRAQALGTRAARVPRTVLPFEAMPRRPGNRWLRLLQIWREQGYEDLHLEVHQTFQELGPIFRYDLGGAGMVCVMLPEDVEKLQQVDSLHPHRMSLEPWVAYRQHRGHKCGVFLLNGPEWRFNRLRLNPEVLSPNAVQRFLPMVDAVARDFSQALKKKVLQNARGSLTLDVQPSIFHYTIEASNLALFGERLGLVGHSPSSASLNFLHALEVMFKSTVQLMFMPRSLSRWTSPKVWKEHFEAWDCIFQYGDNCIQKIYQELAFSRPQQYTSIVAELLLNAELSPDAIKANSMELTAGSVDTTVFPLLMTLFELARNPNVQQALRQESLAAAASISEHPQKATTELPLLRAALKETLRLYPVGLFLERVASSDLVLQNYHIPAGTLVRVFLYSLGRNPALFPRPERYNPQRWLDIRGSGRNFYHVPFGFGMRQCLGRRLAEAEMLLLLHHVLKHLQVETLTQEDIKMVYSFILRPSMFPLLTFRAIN
As to the kind of experiment: Inhibition of human CYP11B1 expressed in hamster V79MZ cells using [1,2-3H]11-deoxycorticosterone as substrate preincubated for 60 mins prior to substrate addition measured after 25 mins by HPLC analysis. It is filed as cell-based.

Turning to `Fc1ccc(Cn2ccnc2)cn1`, the half-inhibitory concentration (IC50) turned out to be 1740 nM in test [1] and 72 nM in test [2].
